pIC50: −log10 of the molar value. “And” between values parts separate entries of the source, which are not always exact repeats. Identical values can stand only once.
Experiments:
Epidermal Growth Factor = test: hamster cheek pouch (HCP) angiogenesis inhibition, EGF stimulus; assay type: in vivo, Male Syrian Golden hamsters; conditions: Table 1; 10 μg EGF; between 0.5 and 4 mg/kg s.c. daily; each number independent result, average of six animals
Method: Each compound of the series was also tested for anti-angiogenic activity by an in vivo test that measured vascularization in a hamster's cheek pouch in response to either an angiogenic polypeptide growth factor, epidermal growth factor (EGF) or an induced […].
In this example, the in vivo angiogenesis inhibition activity of etianic acid esters was tested. Male Syrian Golden hamsters, weighing between 120 g and 150 g were anaesthetized by intraperitoneal (I.P.) injection of a rodent anaesthetic mixture consisting of 50 mg/kg ketamine hydrochloride, 5 mg/kg xylazine and 1 mg/kg acepromazine. The left cheek pouch of each animal was everted with a pincet and pinned down to a plexiglass-rubber stage and observed through a Zeiss stereomicroscope. 10 μg of EGF or 3×10^5 Hamster Melanoma RPM1 1846 tumor cells in 10 μl Cibachrome Blue agarose (Amicon) were injected subcutaneously in the left lower quadrant of the pouch with a Hamilton syringe.
The pouch was then reinserted and animals were kept under observation until recovered from anaesthesia.
The animals were dosed daily with one test compound, starting one day before stimulus injection and continuing until observation. The test compounds were dissolved in a minimum volume of ethanol and diluted in sterile phosphate buffer solution. […]
Either five days or twelve days after the EGF or tumor cell injection, animals were anaesthetized by I.P. injection of the rodent anaesthetic mixture. The pouch was everted on the stage and examined under the stereomicroscope. Pictures were taken with a 35 mm using Kodak Tungsten 50 professional films.
The following subjective scoring was used for evaluating the photographs:
1: minimal branching of vessels in the vicinity of injection site.
2: new vessels reach injection site, area involved is minimal (<50% of area surrounding injection site).
3: many vessels reach and cross injection site, new vessels are tortuous, (>50% of area surrounding injection site).
4: "full blown", many tortuous vessels, leakages, hemorrhages, 100% of area around injection site, invasion of new vessels into non-injected areas.
Results are expressed as the mean of the score. The results are shown in Tables 1 and 2 are percent inhibition of HCP Stimulus.

glucocorticoid receptor = target: T1, glucocorticoid receptor (Mus musculus, UniProt P06537); test: competition for 3H-dexamethasone binding sites in LE II cytosol (glucocorticoid receptor affinity); conditions: Table 1; displacement of 25 nM 3H-DEX, LE II (mouse lung capillary endothelial) cytosol, 3 hours on ice; read-out: IC50 Binding LEII
T1 construct: endogenous in cells; host or cells: LE II (mouse lung capillary endothelial) cells, 100,000 x g cytosol
T1 sequence (P06537 1-792): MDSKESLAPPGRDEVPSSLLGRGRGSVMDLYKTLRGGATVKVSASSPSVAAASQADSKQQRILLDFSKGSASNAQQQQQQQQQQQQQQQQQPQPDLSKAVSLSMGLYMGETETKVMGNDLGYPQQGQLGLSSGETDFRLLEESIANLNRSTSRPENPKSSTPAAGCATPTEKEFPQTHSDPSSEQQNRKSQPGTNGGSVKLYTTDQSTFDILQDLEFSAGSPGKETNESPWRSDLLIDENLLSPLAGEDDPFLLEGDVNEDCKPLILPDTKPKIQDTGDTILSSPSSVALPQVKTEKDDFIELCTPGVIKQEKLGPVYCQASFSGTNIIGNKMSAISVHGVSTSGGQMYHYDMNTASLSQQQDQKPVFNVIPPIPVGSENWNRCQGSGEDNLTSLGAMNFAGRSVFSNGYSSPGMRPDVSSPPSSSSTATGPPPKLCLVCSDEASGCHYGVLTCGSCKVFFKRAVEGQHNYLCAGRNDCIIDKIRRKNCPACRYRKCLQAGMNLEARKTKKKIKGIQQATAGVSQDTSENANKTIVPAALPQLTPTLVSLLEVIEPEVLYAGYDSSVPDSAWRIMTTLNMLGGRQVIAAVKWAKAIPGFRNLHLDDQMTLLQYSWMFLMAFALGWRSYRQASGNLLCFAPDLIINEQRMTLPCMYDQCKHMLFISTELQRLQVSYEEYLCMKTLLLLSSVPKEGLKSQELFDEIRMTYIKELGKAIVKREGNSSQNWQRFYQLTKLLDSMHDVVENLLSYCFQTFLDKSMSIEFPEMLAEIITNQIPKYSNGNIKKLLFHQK
Method: LE II (mouse lung capillary endothelial) or HTC (rat hepatoma) cells were grown in Dulbecco's modified Eagle's (DMEM) medium plus 10% fetal calf serum (FCS), in 150 cm^2 T-flasks. Approximately 20 flasks of LE II cells or 10 flasks of HTC cells were needed for a 60-80 sample assay.
Cell monolayers were washed 3 times with Phosphate Buffered Saline (PBS) and harvested by scraping with a rubber policeman into an ice-cold sonication buffer of 0.25M sucrose; 10 mM Tris-HCl, pH 7.4; 5 mM ethylenediaminetetraacetic acid (EDTA); 5 mM dithiothereitol; and 10 mM sodium molybdate. All subsequent steps were performed at 4° C. The cells were pooled into a final volume of 8-12 mls, broken by sonication for 45 seconds with the microtip of a Branson sonifier at setting #3 and the residue was then centrifuged at 100,000 X g for 30 minutes with a Beckman L8-50, Ti50 rotor, at 40,000 rpm. […] Incubations were peformed in a final volume of 1 ml in 1.5 ml Eppendorf centrifuge tubes for 3 hours on ice.
Fine Sephadex G-50 gel was swollen and equilibrated against column buffer of 100 mM Tris-HCl, pH 7.8; and 3 mM CaCl2. Columns were poured to a final packed volume of 4.5 ml in 5 ml plastic disposable pipets.
The packed columns were then drained of buffer and the 1 ml incubated samples were applied to each. The samples were washed into the columns with 0.5 ml of column buffer, and the exclusion volumes containing the protein peaks were eluted with another 1 ml of column buffer and collected. Aliquots of 750 μl of Biorad protein reagent were diluted 1:5 in H2 O. OD630 nm reading were compared with those obtained for a bovine serum albumin standard curve.

Compound	% Inhibition HCP Stimulus Epidermal Growth Factor (Epidermal Growth Factor)	pIC50 (glucocorticoid receptor)
CCC(=O)O[C@]1(C(=O)OC)[C@@H](C)C[C@H]2[C@@H]3CCC4=CC(=O)C=C[C@]4(C)[C@@]3(F)[C@@H](O)C[C@@]21C [compound 1]	70% and 77%	8.70
CCC(=O)O[C@]1(C(=O)OC)[C@@H](C)C[C@H]2[C@@H]3CC(F)C4=C(F)C(=O)C=C[C@]4(C)[C@@]3(F)[C@@H](O)C[C@@]21C (stereo partly drawn) [compound 3]	95% and 91%	7.82
CCCC(=O)O[C@]1(C(=O)OC)[C@@H](C)C[C@H]2[C@@H]3CC(F)C4=CC(=O)C=C[C@]4(C)[C@@]3(F)[C@@H](O)C[C@@]21C (stereo partly drawn) [compound 4]	100% and 78%	9.60
CCC(=O)O[C@]1(C(=O)OC)[C@H](C)C[C@H]2[C@@H]3CC(F)C4=CC(=O)C=C[C@]4(C)[C@@]3(F)[C@@H](O)C[C@@]21C (stereo partly drawn) [compound 7]	57%	9.60
CCC(=O)O[C@]1(C(=O)OC)[C@H](C)C[C@H]2[C@@H]3CC(F)C4=C(F)C(=O)C=C[C@]4(C)[C@@]3(F)[C@@H](O)C[C@@]21C (stereo partly drawn) [compound 8]	100% and 72% and 82%	9.60
CCCC(=O)O[C@]1(C(=O)OC)[C@H](C)C[C@H]2[C@@H]3CC(F)C4=CC(=O)C=C[C@]4(C)[C@@]3(F)[C@@H](O)C[C@@]21C (stereo partly drawn) [compound 9]	100%	10.60
